In article PMC11062922 (Nature Chemical Biology, 2023):

Tests used:
BMP2K = biological target: T1, BMP2K (Homo sapiens, UniProt Q9NSY1); assay: Kinobeads two-dose competition binding: BMP2K; details: for CATDS: target BMP2K
T1 construct: endogenous in cells
Text: (§1) Briefly, Kinobeads comprise seven broad-spectrum small molecule kinase inhibitors immobilized on Sepharose beads. […]. Compounds of interest are set to compete for target protein binding with Kinobeads in the lysate and the amount of a given protein bound to Kinobeads in the presence of a compound can be quantified relative to a dimethylsulfoxide (DMSO) vehicle control by label-free mass spectrometry. This assay measures the physical interaction of a compound with thousands of endogenous proteins in parallel and, when systematically increasing the concentration of competitor, enables the calculation of an apparent interaction constant ( Kdapp ) for each compound and protein.
(§2) Kinobeads pulldown experiments were performed as described previously[13],[14],[17] with minor modification. […] The protein concentration was adjusted to 5 mg ml^−1. Kinase inhibitors were spiked into 0.5 ml of cell lysate at final concentrations of 100 and 1,000 nM (or DMSO, 0.3, 1, 3, 10, 30, 100, 300 and 1,000 nM for full dose experiments). […] Lysates were incubated for 45 min at 4 °C. Subsequently, lysates were incubated with Kinobeads ε (17.5 µl of settled beads) for 30 min at 4 °C. To assess the degree of protein depletion from the lysates by Kinobeads, the flow through of the DMSO control was recovered for a pulldown of pulldown experiment where the lysate was incubated a second time with fresh Kinobeads. Beads were washed in three steps with buffer containing 0.4%, 0.2% and no IGEPAL. Bound proteins were reduced with 50 mM DTT in 8 M Urea, 40 mM Tris-HCl pH 7.4 for 30 min at room temperature. After alkylation with 55 mM chloroacetamide, the urea concentration was reduced to 1–2 M and proteins were digested with trypsin. Acidified peptides were desalted and concentrated using SepPak tC18 µEluation plates (Waters). Samples were frozen, dried by vacuum centrifugation and stored at −20 °C.
(§3) Each kinase inhibitor was processed together with all DMSO controls of the same plate. Additionally, each search was supplemented with five high quality DMSO controls for consistent peptide identification and protein grouping. The resultant file (proteinGroups.txt) was used for subsequent filtering, normalization, data visualization and target annotation that was automatically performed by a data processing pipeline built in house that used R (including the ‘drc’ and ‘heatmap’ packages). First, reverse hits, potential contaminants and not quantified proteins in the DMSO control samples were discarded. Protein raw and label-free quantification intensities were normalized to the median DMSO control intensity to obtain relative residual binding intensities for each protein group at every inhibitor concentration and standard deviations of the DMSO control intensity were calculated. IC50 values were estimated based on the following equation IC50=I×100−inhibition/inhibition where [I] is the inhibitor concentration that was used for IC50 calculation and ‘inhibition’ the relative residual binding intensity. […]. Estimated Kdapp values were then calculated by multiplying the estimated IC50 values with a protein-dependent correction factor that was limited to a maximum value of one. The correction factor accounts for the depletion of a target protein from the lysate by Kinobeads. The depletion can be measured by the ratio of the amount of protein captured in two consecutive pulldowns of the same DMSO control lysate. In this study, correction factors were determined in separate experiments using the same lysate mixture and the same bead batch. Correction factors were set to the median of all correction factors. Targets of kinase inhibitors were annotated using the previously published random forest classifier. A training data set was annotated manually. […]

NUAK1 = biological target: T2, NUAK1 (Homo sapiens, UniProt O60285); assay: Kinobeads two-dose competition binding: NUAK1; details: for CATDS: target NUAK1
T2 construct: to maximize the representation of endogenous proteins; endogenous in cells
T2 sequence (O60285 1-661): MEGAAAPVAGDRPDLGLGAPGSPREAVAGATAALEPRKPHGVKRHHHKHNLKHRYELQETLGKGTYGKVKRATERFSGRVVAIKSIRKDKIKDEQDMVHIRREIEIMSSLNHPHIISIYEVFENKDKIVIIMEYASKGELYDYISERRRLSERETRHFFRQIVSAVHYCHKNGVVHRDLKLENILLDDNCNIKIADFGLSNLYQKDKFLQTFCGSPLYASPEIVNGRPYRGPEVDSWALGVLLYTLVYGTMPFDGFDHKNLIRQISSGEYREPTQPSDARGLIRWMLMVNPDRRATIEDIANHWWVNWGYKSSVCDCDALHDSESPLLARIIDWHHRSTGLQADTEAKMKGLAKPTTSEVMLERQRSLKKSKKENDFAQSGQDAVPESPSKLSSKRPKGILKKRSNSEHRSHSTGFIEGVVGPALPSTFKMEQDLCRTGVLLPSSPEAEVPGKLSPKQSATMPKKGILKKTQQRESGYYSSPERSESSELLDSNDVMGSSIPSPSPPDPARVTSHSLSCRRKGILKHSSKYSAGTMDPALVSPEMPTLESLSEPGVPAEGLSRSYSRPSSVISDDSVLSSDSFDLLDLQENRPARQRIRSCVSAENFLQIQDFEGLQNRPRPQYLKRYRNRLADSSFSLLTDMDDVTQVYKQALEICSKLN
Text: as §1, §2, §3

ACAD11 = biological target: T3, ACAD11 (Homo sapiens, UniProt Q709F0); assay: Kinobeads two-dose competition binding: ACAD11; details: sheet CATDS matrix 2; Gene Name ACAD11
T3 construct: endogenous in cells
T3 sequence (Q709F0 1-780): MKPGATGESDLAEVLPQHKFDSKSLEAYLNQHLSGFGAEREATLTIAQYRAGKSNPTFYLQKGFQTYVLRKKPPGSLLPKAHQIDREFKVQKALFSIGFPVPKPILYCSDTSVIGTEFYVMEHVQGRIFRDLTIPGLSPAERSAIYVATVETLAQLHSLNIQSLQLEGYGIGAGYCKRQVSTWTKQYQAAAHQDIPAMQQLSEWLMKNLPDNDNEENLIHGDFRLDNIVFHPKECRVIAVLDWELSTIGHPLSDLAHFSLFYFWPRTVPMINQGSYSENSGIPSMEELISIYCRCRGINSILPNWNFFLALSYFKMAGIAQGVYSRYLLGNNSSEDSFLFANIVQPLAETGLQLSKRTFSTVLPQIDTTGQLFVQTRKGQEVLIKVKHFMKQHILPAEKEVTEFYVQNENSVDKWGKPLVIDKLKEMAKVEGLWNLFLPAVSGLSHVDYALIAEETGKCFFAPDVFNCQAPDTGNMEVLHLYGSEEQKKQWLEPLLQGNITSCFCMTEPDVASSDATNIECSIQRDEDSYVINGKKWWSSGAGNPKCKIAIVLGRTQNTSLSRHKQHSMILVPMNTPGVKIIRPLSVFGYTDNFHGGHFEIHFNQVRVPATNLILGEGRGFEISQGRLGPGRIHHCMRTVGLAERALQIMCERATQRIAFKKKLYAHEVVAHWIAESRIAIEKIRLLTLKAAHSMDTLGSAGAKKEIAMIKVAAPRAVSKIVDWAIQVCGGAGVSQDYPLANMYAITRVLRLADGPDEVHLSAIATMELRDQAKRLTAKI

T1 sequence (Q9NSY1 whole entry): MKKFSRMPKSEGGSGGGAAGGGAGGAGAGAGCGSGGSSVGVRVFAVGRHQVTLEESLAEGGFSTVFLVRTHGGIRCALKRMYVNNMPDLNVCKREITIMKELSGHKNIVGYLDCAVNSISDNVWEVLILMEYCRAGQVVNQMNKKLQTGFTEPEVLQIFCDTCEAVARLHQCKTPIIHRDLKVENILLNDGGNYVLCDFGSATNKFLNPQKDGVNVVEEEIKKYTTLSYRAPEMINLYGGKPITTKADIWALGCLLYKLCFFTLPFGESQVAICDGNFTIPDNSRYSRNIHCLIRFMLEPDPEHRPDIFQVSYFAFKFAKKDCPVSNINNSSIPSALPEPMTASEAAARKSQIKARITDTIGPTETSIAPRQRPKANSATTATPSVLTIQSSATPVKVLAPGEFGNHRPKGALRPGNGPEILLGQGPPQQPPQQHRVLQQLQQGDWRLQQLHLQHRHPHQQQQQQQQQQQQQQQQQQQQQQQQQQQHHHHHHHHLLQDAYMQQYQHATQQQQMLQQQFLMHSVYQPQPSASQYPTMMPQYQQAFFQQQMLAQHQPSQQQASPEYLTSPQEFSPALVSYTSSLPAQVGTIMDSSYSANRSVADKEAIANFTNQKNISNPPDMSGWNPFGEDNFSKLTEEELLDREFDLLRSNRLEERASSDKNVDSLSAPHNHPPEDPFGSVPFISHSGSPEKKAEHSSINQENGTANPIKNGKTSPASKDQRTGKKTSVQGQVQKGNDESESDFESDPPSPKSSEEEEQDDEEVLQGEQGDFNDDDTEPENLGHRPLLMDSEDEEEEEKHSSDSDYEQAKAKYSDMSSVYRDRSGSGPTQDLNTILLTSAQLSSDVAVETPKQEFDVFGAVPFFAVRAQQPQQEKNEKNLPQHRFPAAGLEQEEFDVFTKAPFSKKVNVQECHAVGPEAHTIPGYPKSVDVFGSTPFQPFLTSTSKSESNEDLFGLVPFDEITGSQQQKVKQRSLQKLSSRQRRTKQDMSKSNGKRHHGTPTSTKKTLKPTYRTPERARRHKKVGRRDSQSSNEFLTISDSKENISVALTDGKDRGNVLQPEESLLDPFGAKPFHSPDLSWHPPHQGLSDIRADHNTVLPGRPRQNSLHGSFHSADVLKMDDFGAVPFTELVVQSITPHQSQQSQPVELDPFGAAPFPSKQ

| potency estimated from few doses (BMP2K; Kinobeads two-dose, Drugmatrix - all 2, read-out: apparent Kd BMP2K) | potency estimated from few doses (NUAK1; Kinobeads two-dose, Drugmatrix - all 2, read-out: apparent Kd NUAK1) | SMILES | CATDS (ACAD11) | CATDS (BMP2K) | CATDS (NUAK1) |
| --- | --- | --- | --- | --- | --- |
| 736 nM | > 1000 nM | CC(C)N1CC(=O)N(C)c2cnc(Nc3cccc(S(=O)(=O)CCN4CCOCC4)c3)nc21 [BI00009348] | 0 | – | – |
| – | – | CCc1cc2c(cc1N1CCC(N3CCOCC3)CC1)C(C)(C)c1[nH]c3cc(C#N)ccc3c1C2=O [Alectinib] | 0 | 0 | 0 |
| – | – | CN(C)C/C=C/C(=O)Nc1cc2c(Nc3ccc(F)c(Cl)c3)ncnc2cc1O[C@H]1CCOC1 [Afatinib] | 0 | 0 | 0 |
| – | – | C#Cc1cccc(Nc2ncnc3cc(OC)c(OC4CCN(C)CC4)cc23)c1 [BI00007366] | 0 | – | – |
| – | – | Nc1ncnc2[nH]c(-c3ccccc3)nc12 [AH5015_KCGS] | 0 | 0 | 0 |
| – | – | CCN1CCN(Cc2ccc(Nc3ncc(F)c(-c4cc(F)c5nc(C)n(C(C)C)c5c4)n3)nc2)CC1 [Abemaciclib] | 0 | 0 | 0 |
| – | – | N#CC1(c2ccc(NC(=O)c3cccnc3NCc3ccncc3)cc2)CCCC1 [Apatinib] | 0 | 0 | 0 |
